Assay: Waters ACQUITY UPLC BEH C18, 100 × 2.1 mm, 1.7 µm, 40 °C, 0.3 to 0.4 mL/min, estimated dead time 0.63 min; A: water + 0.1% formic acid; B: methanol + 0.1% formic acid; gradient (min/%B) 0/0.5 0.1/0.5 10/80 10.1/99.5 12/99.5
Details: stereoisomer not certain

SMILES | LC retention time
COc1cc(C=CC(=O)OC2C(OC3C(Oc4c(-c5ccc(O)cc5)oc5cc(OC6OC(CO)C(OC7OC(CO)C(O)C(O)C7O)C(O)C6O)cc(O)c5c4=O)OC(CO)C(O)C3O)OC(CO)C(O)C2O)ccc1O (centres undefined) | 4.01 min
COC1OC2c3cc4c(cc3CCN(C)C2c2ccc3c(c21)OCO3)OCO4 (centres undefined) | 4.65 min
CC1OC(OCC2OC(Oc3cc(O)c4c(c3)OC(c3ccc(O)c(O)c3)CC4=O)C(O)C(O)C2O)C(O)C(O)C1O (centres undefined) | 3.92 min
CC(C)C(NC(=O)C(N)Cc1ccccc1)C(=O)O (centres undefined) | 2.98 min
C=CC1CN2CCc3c([nH]c4ccccc34)C2CC1C(=COC)C(=O)OC (centres undefined) | 5.68 min
CC(=O)OC1CC(COC2OC(CO)C(O)C(O)C2OC2OC(CO)C(O)C(O)C2O)CNC12OC1CC3C4CCC5CC(OC6OC(CO)C(OC7OC(CO)C(OC8OCC(O)C(O)C8O)C(O)C7OC7OC(CO)C(O)C(O)C7O)C(O)C6O)CCC5(C)C4CCC3(C)C1C2C (centres undefined) | 3.84 min
CCCCCC=CC=CC(CCCCCCCC(=O)O)OO (centres undefined) | 8 min
O=C(O)C1OC(Oc2cc3oc(-c4ccccc4)cc(=O)c3c(O)c2O)C(O)C(O)C1O (centres undefined) | 4.49 min
CCCCCC=CCC=CCCCCCCCC(=O)OCC(O)COP(=O)([O-])OCC[N+](C)(C)C (centres undefined) | 9.31 min
COc1ccc2c(c[n+](C)c3c4cc5c(cc4ccc23)OCO5)c1OC | 5.3 min
O=C1CC2OCC=C3CN4CCC56c7ccccc7N1C5C2C3CC46 (centres undefined) | 3.46 min
COc1cc(C=CC(=O)O)ccc1O | 4.24 min
CN1CCc2cc3c(cc2C(=O)Cc2ccc4c(c2C1)OCO4)OCO3 | 4.36 min
C1CCN2CC3CC(CN4CCCCC34)C2C1 (centres undefined) | 2.33 min
COc1cc(C(=O)OC2CC3CCC(C2)N3)ccc1O (centres undefined) | 3.27 min
OCC1OC(Oc2cc3c(OC4OC(CO)C(O)C(O)C4O)cc(O)cc3[o+]c2-c2ccc(O)c(O)c2)C(O)C(O)C1O (centres undefined) | 2.5 min
CC(C)=CCC=C(C)C1CCC2(C)C1C(O)CC1C3(C)CCC(OC4OC(CO)C(O)C(O)C4OC4OC(CO)C(O)C(O)C4O)C(C)(C)C3CCC12C (centres undefined) | 9.63 min
CC(CCC1(O)OC2CC3C4CC=C5CC(O)CC(OC6OCC(O)C(O)C6OC6OC(C)C(O)C(O)C6O)C5(C)C4CCC3(C)C2C1C)COC1OC(CO)C(O)C(O)C1O (centres undefined) | 4.48 min
CC(O)(CC(=O)O)CC(=O)OCC1OC(Oc2c(-c3ccc(O)cc3)oc3cc(OC4OC(CO)C(O)C(O)C4O)cc(O)c3c2=O)C(O)C(O)C1O (centres undefined) | 3.34 min
CCCCCCCCCCCCCCCC(=O)OCC(O)COP(=O)(O)OCCN (centres undefined) | 10 min
CCSSCC(NCC1(O)OCC(O)C(O)C1O)C(=O)NCCC(=O)O (centres undefined) | 3.29 min
CC1(C)CC2C3=CCC4C5(C)CCC(O)C(C)(CO)C5CCC4(C)C3(C)CCC2(C)C(O)C1O (centres undefined) | 8.94 min
CSCC1OC(n2cnc3c(N)ncnc32)C(O)C1O (centres undefined) | 2.7 min
CC(C)CC(N)C(=O)NC(C(=O)O)C(C)C (centres undefined) | 2.66 min
CC(C)=CCCC(C)(OC1OC(CO)C(O)C(O)C1O)C1CCC2(C)C1C(O)CC1C3(C)CCC(OC4OC(CO)C(O)C(O)C4O)C(C)(C)C3CCC12C (centres undefined) | 7.66 min
C[n+]1cc2c3c(ccc2c2ccc4cc5c(cc4c21)OCO5)OCO3 | 4.85 min
O=C(CCc1ccc(O)cc1)c1c(O)cc(O)cc1OC1OC(CO)C(O)C(O)C1O (centres undefined) | 4.73 min

SMILES | LC retention time
CC(C)=CCc1c(O)cc(O)c2c1OC(c1ccc(O)cc1)CC2=O (centres undefined) | 8.76 min
c1ccc2c(c1)CN1CCCC1=N2 | 2.8 min
CC(C)(CO)C(O)C(=O)NCCC(=O)O (centres undefined) | 2.48 min
CC1(C(=O)O)CCC2(C)CCC3(C)C(=CCC4C5(C)CCC(OC6OC(C(=O)O)C(O)C(O)C6OC6OC(C(=O)O)C(O)C(O)C6O)C(C)(CO)C5CCC43C)C2C1 (centres undefined) | 6.15 min
CC(O)(CC(=O)O)CC(=O)O | 1.98 min
CCC(C)C(NC(=O)C(N)C(C)C)C(=O)O (centres undefined) | 2.88 min
COc1cc(-c2oc3cc(O)cc(O)c3c(=O)c2O)cc(O)c1O | 5.37 min
CC(C)=CCc1c(O)cc2c(c1O)C(=O)CC(c1ccccc1)O2 (centres undefined) | 7.58 min
COc1c(CC=C(C)C)c(O)cc2oc(=O)c(-c3ccc(O)cc3O)cc12 | 7.01 min
OCC1OC(Oc2cc3c(O)cc(O)cc3[o+]c2-c2ccc(O)cc2)C(O)C(O)C1O (centres undefined) | 3.12 min
COc1cc(C(O)C(CO)Oc2c(OC)cc(-c3cc(=O)c4c(O)cc(OC5OC(COC(=O)CC(=O)O)C(O)C(O)C5O)cc4o3)cc2OC)ccc1O (centres undefined) | 5.17 min
O=c1cc(-c2ccc(O)cc2)oc2c(C3OC(CO)C(O)C(O)C3O)c(O)c(C3OCC(O)C(O)C3O)c(O)c12 (centres undefined) | 3.41 min
O=c1c(OC2OC(CO)C(O)C(O)C2O)c(-c2cc(O)c(O)c(OC3OC(CO)C(O)C(O)C3O)c2)oc2cc(O)cc(O)c12 (centres undefined) | 3.34 min
C=CC1C(OC2OC(CO)C(O)C(O)C2O)OC=C(C(=O)O)C1Cc1nccc2c1[nH]c1ccc(O)cc12 (centres undefined) | 3.69 min
COc1ccc(-c2coc3cc(O)c(CC=C(C)C)c(O)c3c2=O)cc1 | 8.02 min
CCOC(=O)Oc1c(OC)cc(C(=O)OC2CC3CN4CCc5c([nH]c6cc(OC)ccc56)C4CC3C(C(=O)OC)C2OC)cc1OC (centres undefined) | 6.72 min
OCC1OC(OCC2OC(OCC3OC(OC4(CO)OC(CO)C(O)C4O)C(O)C(O)C3O)C(O)C(O)C2O)C(O)C(O)C1O (centres undefined) | 1.69 min
CCCCCCC(O)CC=CCCCCCCCC(=O)O (centres undefined) | 10.1 min
CC(C)=CCc1c(O)ccc(-c2coc3cc(O)cc(O)c3c2=O)c1O | 7.57 min
CS(=O)CCCCN=C=S (centres undefined) | 3.69 min
CC1OC(OC2C(OC3C(OC4CCC5(C)C(CCC6(C)C5CC=C5C7CC(C)(C)CC(=O)C7(C)CCC56C)C4(C)CO)OC(C(=O)O)C(O)C3O)OCC(O)C2O)C(O)C(O)C1O (centres undefined) | 7.85 min
CC(C)=CCc1cc(C2Oc3c(ccc(O)c3CC=C(C)C)C(=O)C2O)ccc1O (centres undefined) | 10.2 min
CCC(C)C(=O)OC1C(O)C2C(CN3CC(C)CCC3C2(C)O)C2CC34OC5(O)C(OC(=O)C(C)(O)C(C)O)CCC3(C)C5CC(O)C4C21O (centres undefined) | 4.65 min
CC1OC(OCC2OC(Oc3c(-c4ccc(O)cc4)oc4cc(OC5OC(C)C(O)C(O)C5O)cc(O)c4c3=O)C(O)C(O)C2O)C(O)C(O)C1O (centres undefined) | 3.4 min
CC1OC(OC2C(c3c(O)cc4oc(-c5ccc(O)c(O)c5)cc(=O)c4c3O)OC(CO)C(O)C2O)C(O)C(O)C1O (centres undefined) | 4.48 min
COc1cc(C=CC(=O)NCCCCNC(=O)C=Cc2ccc(O)c(OC)c2)ccc1O | 5.19 min
O=C1NCC(=O)N2CCCC12 (centres undefined) | 2.06 min

SMILES | LC retention time
CC1(C)CCC2(C(=O)O)CCC3(C)C(=CCC4C5(C)CC(O)C(O)C(C)(C(=O)OC6OC(COC(=O)CC(=O)O)C(O)C(O)C6O)C5CCC43C)C2C1 (centres undefined) | 7.45 min
COC(=O)C1=COC(OC2OC(CO)C(O)C(O)C2O)C2C1CC(O)C2C (centres undefined) | 3.36 min
COc1cc2cc3c4cc(OC)c(OC)cc4cc[n+]3c(C)c2cc1OC | 5.27 min
C=CCNC(=O)C=Cc1ccc(O)c(OC)c1 | 2.86 min
O=c1c(OC2OC(CO)C(O)C(O)C2OC2OC(CO)C(O)C(O)C2O)c(-c2ccc(O)cc2)oc2cc(O)cc(O)c12 (centres undefined) | 3.8 min
OCC(Cc1cccc(O)c1)C(CO)Cc1cccc(O)c1 (centres undefined) | 5.26 min
O=C(Cc1c[nH]c2ccccc12)NC(Cc1ccccc1)C(=O)O (centres undefined) | 6.34 min
CC(N)C(=O)NC(Cc1ccccc1)C(=O)O (centres undefined) | 2.84 min
O=C(C=Cc1ccc(O)c(O)c1)c1ccc(OC2OC(CO)C(O)C(O)C2O)c(O)c1O (centres undefined) | 4.1 min
COc1cc2c(cc1OC)-c1cc3ccc(OC)c(OC)c3c[n+]1CC2 | 4.96 min
CCC=CCC=CCC=CCCCCCCCC(=O)OCC(O)COP(=O)([O-])OCC[N+](C)(C)C (centres undefined) | 8.93 min
COc1cc(C=CC(=O)OCC2OC(OC3C(c4c(O)cc5oc(-c6ccc(O)c(OC)c6)cc(=O)c5c4O)OC(CO)C(O)C3O)C(O)C(O)C2O)ccc1O (centres undefined) | 4.19 min
CCCCCCCCC=CCCCCCCCC(=O)OCC(O)COP(=O)([O-])OCC[NH3+] (centres undefined) | 10.2 min
C=CCc1ccc(O)c(-c2ccc(O)c(CC=C)c2)c1 | 8.63 min
O=c1c(OC2OCC(O)C(O)C2O)c(-c2cc(O)c(O)c(O)c2)oc2cc(O)cc(O)c12 (centres undefined) | 3.9 min
O=C1c2c(O)cc(O)cc2OC(c2ccc(O)c(O)c2)C1O (centres undefined) | 4.27 min
CCC(C)=CCCC(C)(OC1OC(COC2OCC(O)C(O)C2O)C(O)C(O)C1O)C1CCC2(C)C3CCC4C(C)(C)C(OC5OC(CO)C(O)C(O)C5OC5OC(CO)C(O)C(O)C5O)CCC4(C)C3CC(O)C12 (centres undefined) | 6.19 min
Oc1cc(O)c2ccc(-c3ccc(O)c(O)c3)[o+]c2c1 | 3.59 min
OCC1OC(Oc2cc3c(OC4OC(CO)C(O)C(O)C4O)cc(O)cc3[o+]c2-c2ccc(O)cc2)C(O)C(O)C1O (centres undefined) | 2.71 min
CC1OC(OCC2OC(Oc3c(-c4ccc(O)c(O)c4)oc4cc(O)cc(O)c4c3=O)C(OC3OCC(O)C(O)C3O)C(O)C2O)C(O)C(O)C1O (centres undefined) | 3.65 min
O=c1c(-c2ccc(O)cc2)coc2cc(O)ccc12 | 5.15 min
CCCSSCC(NC(=O)CCC(N)C(=O)O)C(=O)NCC(=O)O (centres undefined) | 3.78 min
COc1cc(C2c3cc4c(cc3C(OC3OC5COC(C)OC5C(O)C3O)C3COC(=O)C23)OCO4)cc(OC)c1O (centres undefined) | 5.4 min
CCN(CC)CCOC(=O)c1ccc(N)cc1 | 2.75 min
COc1cc(C=CC(=O)OC2C(O)CC(O)(C(=O)O)CC2O)ccc1O (centres undefined) | 3.74 min
